Where “and” joins values, the source holds several entries; their conditions need not be identical. Identical values can stand only once. Toxic doses and inconclusive results are not listed. Rule for the calls: active = survival T/C of 150% or more; inactive = T/C below 125% in these data.
Test system: CD2F1 mice, L1210 leukemia ip, survival T/C
Test: NCI In Vivo Anticancer Drug Screen. Data for tumor model L1210 Leukemia (intraperitoneal) in CD2F1 (CDF1) mice
Settings: higher = longer survival
Outline: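 Ratio T/C, where T is the treated-group value and C the vehicle-dosed control value, from mice implanted with a transplantable tumor.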

[1] = endpoint: mean survival time, dose: 12.5 mg/kg/injection, schedule: Q01DX009 (ip), vehicle: saline with Tween-80
[2] = endpoint: mean survival time, dose: 25.0 mg/kg/injection, schedule: Q01DX009 (ip), vehicle: saline with Tween-80
[3] = endpoint: mean survival time, dose: 100.0 mg/kg/injection, schedule: Q01DX009 (ip), vehicle: saline with Tween-80
[4] = endpoint: mean survival time, dose: 100.0 mg/kg/injection, schedule: Q04DX003 (ip), vehicle: saline with Tween-80

Measured: T/C

COc1ccc2nc3cc(Cl)ccc3c(NCCNCCNCCNc3c4ccc(Cl)cc4nc4ccc(OC)cc34)c2c1
inactive: endpoint: mean survival time, dose: 3.12 mg/kg/injection, schedule: Q01DX009 (ip), vehicle: Klucel (hydroxypropylcellulose) (HPC) 113 % of control | endpoint: mean survival time, dose: 3.12 mg/kg/injection, schedule: Q01DX009 (ip), vehicle: saline with Tween-80 96 % of control | endpoint: mean survival time, dose: 6.25 mg/kg/injection, schedule: Q01DX009 (ip), vehicle: Klucel (hydroxypropylcellulose) (HPC) 116 % of control | endpoint: mean survival time, dose: 6.25 mg/kg/injection, schedule: Q01DX009 (ip), vehicle: saline with Tween-80 96 % of control | endpoint: mean survival time, dose: 12.5 mg/kg/injection, schedule: Q01DX009 (ip), vehicle: Klucel (hydroxypropylcellulose) (HPC) 101 % of control | [1] 102 % of control | [2] 103 % of control | endpoint: mean survival time, dose: 50.0 mg/kg/injection, schedule: Q01DX009 (ip), vehicle: Klucel (hydroxypropylcellulose) (HPC) 90 % of control | endpoint: mean survival time, dose: 50.0 mg/kg/injection, schedule: Q01DX009 (ip), vehicle: saline with Tween-80 106 % of control | [3] 106 % of control

O=C(NC1CCCCC1)NC1CCC(CC2CCCCC2)CC1 (stereo not given)
inactive: [4] 98 % of control | endpoint: mean survival time, dose: 200.0 mg/kg/injection, schedule: Q04DX003 (ip), vehicle: saline with Tween-80 96 % of control | endpoint: mean survival time, dose: 400.0 mg/kg/injection, schedule: Q04DX003 (ip), vehicle: saline with Tween-80 96 % of control

Cc1ccc(Cl)cc1NC(=S)NC(=O)COc1ccccc1
inactive: [1] 98 % of control and 106 % of control | [2] 98 % of control | endpoint: mean survival time, dose: 25.0 mg/kg/injection, schedule: Q04DX003 (ip), vehicle: saline with Tween-80 100 % of control | endpoint: mean survival time, dose: 50.0 mg/kg/injection, schedule: Q01DX001 (ip), vehicle: saline with Tween-80 97 % of control | endpoint: mean survival time, dose: 50.0 mg/kg/injection, schedule: Q04DX003 (ip), vehicle: saline with Tween-80 96 % of control | endpoint: mean survival time, dose: 100.0 mg/kg/injection, schedule: Q01DX001 (ip), vehicle: saline with Tween-80 89 % of control | endpoint: mean survival time, dose: 100.0 mg/kg/injection, schedule: Q04DX002 (ip), vehicle: saline with Tween-80 87 % of control | [4] 90 % of control | endpoint: mean survival time, dose: 200.0 mg/kg/injection, schedule: Q01DX001 (ip), vehicle: saline with Tween-80 88 % of control | endpoint: mean survival time, dose: 200.0 mg/kg/injection, schedule: Q04DX002 (ip), vehicle: saline with Tween-80 98 % of control

C(CC1CO1)C1CO1 (stereo not given)
inactive: endpoint: mean survival time, dose: 2.5 mg/kg/injection, schedule: Q01DX009 (ip), vehicle: Klucel (hydroxypropylcellulose) (HPC) 98 % of control and 104 % of control | endpoint: mean survival time, dose: 5.0 mg/kg/injection, schedule: Q01DX009 (ip), vehicle: Klucel (hydroxypropylcellulose) (HPC) 98 % of control and 104 % of control | endpoint: mean survival time, dose: 10.0 mg/kg/injection, schedule: Q01DX009 (ip), vehicle: Klucel (hydroxypropylcellulose) (HPC) 92 % of control and 96 % of control | endpoint: mean survival time, dose: 20.0 mg/kg/injection, schedule: Q01DX009 (ip), vehicle: Klucel (hydroxypropylcellulose) (HPC) 98 % of control and 104 % of control | endpoint: mean survival time, dose: 40.0 mg/kg/injection, schedule: Q01DX009 (ip), vehicle: Klucel (hydroxypropylcellulose) (HPC) 95 % of control and 98 % of control | endpoint: mean survival time, dose: 49.5 mg/kg/injection, schedule: Q01DX009 (ip), vehicle: Klucel (hydroxypropylcellulose) (HPC) 122 % of control | endpoint: mean survival time, dose: 80.0 mg/kg/injection, schedule: Q01DX009 (ip), vehicle: Klucel (hydroxypropylcellulose) (HPC) 96 % of control and 98 % of control

N#CC(/C=C/c1ccccc1)Nc1ccc(CCc2ccc(NC(C#N)/C=C/c3ccccc3)cc2)cc1 (stereo not given)
inactive: [3] 94 % of control | endpoint: mean survival time, dose: 200.0 mg/kg/injection, schedule: Q01DX009 (ip), vehicle: saline with Tween-80 90 % of control | endpoint: mean survival time, dose: 400.0 mg/kg/injection, schedule: Q01DX009 (ip), vehicle: saline with Tween-80 100 % of control

C(=C\CN1CCOCC1)/CN1CCOCC1
inactive: endpoint: mean survival time, dose: 100.0 mg/kg/injection, schedule: Q01DX009 (ip), vehicle: saline 91 % of control | endpoint: mean survival time, dose: 200.0 mg/kg/injection, schedule: Q01DX009 (ip), vehicle: saline 97 % of control | endpoint: mean survival time, dose: 400.0 mg/kg/injection, schedule: Q01DX009 (ip), vehicle: saline 97 % of control

C#CCN(Cc1ccc2nc(N)[nH]c(=O)c2c1)c1ccc(C(=O)NC(CCC(=O)O)C(=O)O)cc1 (stereo not given)
active: endpoint: median survival time, dose: 120.0 mg/kg/injection, schedule: Q01DX009 (ip), vehicle: sodium bicarbonate 156 % of control and 185 % of control | endpoint: median survival time, dose: 144.0 mg/kg/injection, schedule: Q01DX005 (ip), vehicle: water 162 % of control | endpoint: median survival time, dose: 400.0 mg/kg/injection, schedule: Q01DX005 (ip), vehicle: water 161 % of control
inactive: endpoint: median survival time, dose: 7.5 mg/kg/injection, schedule: Q01DX009 (ip), vehicle: sodium bicarbonate 109 % of control | endpoint: median survival time, dose: 15.0 mg/kg/injection, schedule: Q01DX009 (ip), vehicle: sodium bicarbonate 105 % of control and 109 % of control | endpoint: median survival time, dose: 25.0 mg/kg/injection, schedule: Q01DX005 (ip), vehicle: water 108 % of control | endpoint: median survival time, dose: 30.0 mg/kg/injection, schedule: Q01DX009 (ip), vehicle: sodium bicarbonate 117 % of control and 109 % of control | endpoint: median survival time, dose: 50.0 mg/kg/injection, schedule: Q01DX005 (ip), vehicle: water 109 % of control | endpoint: median survival time, dose: 86.4 mg/kg/injection, schedule: Q01DX005 (ip), vehicle: water 121 % of control
